Legend:
Ipomoea purpurea = assay: Post-emergence herbicidal effect; format: in vivo; settings: 320 g/ha (dose by row order of upper half), scoring after about 3 weeks
Method: (§1) Seeds of monocotyledonous and dicotyledonous weed and crop plants are laid out in sandy loam in wood-fiber pots, covered with soil and cultivated in a greenhouse under good growth conditions. 2 to 3 weeks after sowing, the test plants are treated at the one-leaf stage. The compounds of the invention, formulated in the form of wettable powders (WP) or as emulsion concentrates (EC), are then sprayed onto the green parts of the plants as aqueous suspension or emulsion at a water application rate equating to 600 to 800 L/ha with addition of 0.2% wetting agent. After the trial plants have been left to stand in a greenhouse under optimal growth conditions for about 3 weeks, the efficacy of the formulations is scored visually in comparison to untreated controls (herbicidal action in percent (%): 100% efficacy=the plants have died, 0% efficacy=like control plants).

Viola tricolor = assay: Pre-emergence herbicidal effect; format: in vivo; settings: 3 weeks
Source text: (§2) Seeds of monocotyledonous and dicotyledonous weed plants and crop plants are laid out in wood-fiber pots in sandy loam and covered with soil. The compounds of the invention, formulated in the form of wettable powders (WP) or as emulsion concentrates (EC), are then applied to the surface of the covering soil as aqueous suspension or emulsion at a water application rate equating to 600 to 800 L/ha with addition of 0.2% wetting agent.
(§3) After the treatment, the pots are placed in a greenhouse and kept under good growth conditions for the trial plants. The damage to the trial plants is scored visually after a trial duration of 3 weeks by comparison with untreated controls (herbicidal activity in percent (%): 100% efficacy=the plants have died, 0% efficacy=like control plants).

Setaria viridis = assay: Pre-emergence herbicidal effect; format: in vivo; settings: 320 g/ha, 3 weeks
Source text: as §2, §3

Matricaria inodora = assay: Pre-emergence herbicidal effect; format: in vivo; settings: 3 weeks
Source text: as §2, §3

Amaranthus retroflexus = assay: Pre-emergence herbicidal effect; format: in vivo; settings: 3 weeks
Source text: as §2, §3

Veronica persica = assay: Pre-emergence herbicidal effect; format: in vivo; settings: 3 weeks
Source text: as §2, §3

Polygonum convolvulus = assay: Pre-emergence herbicidal effect; format: in vivo; settings: 320 g/ha, 3 weeks
Source text: as §2, §3

Echinochloa crus-galli = assay: Pre-emergence herbicidal effect; format: in vivo; settings: 320 g/ha, 3 weeks
Source text: as §2, §3

Stellaria media = assay: Pre-emergence herbicidal effect; format: in vivo; settings: 3 weeks
Source text: as §2, §3

Zea mays [1] = assay: Post-emergence herbicidal effect and crop plant compatibility; format: in vivo; settings: visual scoring after about 3 weeks
Method: as §1

[2] = test system: Triticum aestivum (spring); assay: as above; format: in vivo; settings: visual scoring after about 3 weeks
Method: as §1

Oryza sativa [3] = assay: as above; format: in vivo; settings: visual scoring after about 3 weeks
Method: as §1

[4] = logp (HCOOH), physicochemical characterization
Zea mays [5] = assay: Pre-emergence herbicidal effect and crop plant compatibility; format: in vivo; settings: 3 weeks
Source text: as §2, §3

[6] = test system: Triticum aestivum (spring); assay: as above; format: in vivo; settings: 3 weeks
Source text: as §2, §3

Oryza sativa [7] = assay: as above; format: in vivo; settings: 3 weeks
Source text: as §2, §3

Alopecurus myosuroides = assay: Pre-emergence herbicidal effect; format: in vivo; settings: 320 g/ha, 3 weeks
Source text: as §2, §3

Lolium multiflorum = assay: Pre-emergence herbicidal effect; format: in vivo; settings: 320 g/ha, 3 weeks
Source text: as §2, §3

| SMILES | post-emergence efficacy PHBPU (Ipomoea purpurea) | VIOTR herbicidal activity in percent (Viola tricolor; 80 g/ha) | VIOTR herbicidal activity in percent (Viola tricolor; 320 g/ha) | SETVI herbicidal activity in percent (Setaria viridis) | MATIN herbicidal activity in percent (Matricaria inodora; 320 g/ha) | AMARE herbicidal activity in percent (Amaranthus retroflexus; 80 g/ha) | AMARE herbicidal activity in percent (Amaranthus retroflexus; 320 g/ha) | VERPE herbicidal activity in percent (Veronica persica; 80 g/ha) | VERPE herbicidal activity in percent (Veronica persica; 320 g/ha) | POLCO herbicidal activity in percent (Polygonum convolvulus) | ECHCG herbicidal activity in percent (Echinochloa crus-galli) | STEME herbicidal activity in percent (Stellaria media; 80 g/ha) | STEME herbicidal activity in percent (Stellaria media; 320 g/ha) | post-emergence efficacy ZEAMX (Zea mays [1]; 80 g/ha) | post-emergence efficacy ZEAMX (Zea mays [1]; 320 g/ha) | post-emergence efficacy TRZAS ([2]; 80 g/ha) | post-emergence efficacy TRZAS ([2]; 320 g/ha) | post-emergence efficacy ORYSA (Oryza sativa [3]; 80 g/ha) | post-emergence efficacy ORYSA (Oryza sativa [3]; 320 g/ha) | ZEAMX herbicidal activity in percent (Zea mays [5]; 80 g/ha) | also measured |
| --- | --- | --- | --- | --- | --- | --- | --- | --- | --- | --- | --- | --- | --- | --- | --- | --- | --- | --- | --- | --- | --- |
| CC1(C)CC(=O)c2cnc(N[C@@H]3CCCc4ccccc43)nc2C1 [2.25, 7,7-dimethyl-2-[(1R)-1,2,3,4-tetrahydronaphthalen-1-ylamino]-7,8-dihydroquinazolin-5(6H)-one] | 90% | 100% | 100% | 100% | 100% | 90% | 100% | 100% | 100% | 100% | 100% | 100% | 100% | 0% | 0% | 10% | 20% | 0% | 0% | 0% | MATIN herbicidal activity in percent (Matricaria inodora; 80 g/ha): 90%; chromatographic logP ([4]; HCOOH (formic acid)): 3.71; ZEAMX herbicidal activity in percent (Zea mays [5]; 320 g/ha): 0%; TRZAS herbicidal activity in percent ([6]; 80 g/ha): 0%; ORYSA herbicidal activity in percent (Oryza sativa [7]; 80 g/ha): 0%; ORYSA herbicidal activity in percent (Oryza sativa [7]; 320 g/ha): 0% |
| O=C1CC(C(F)(F)F)Cc2nc(N[C@@H]3CCCc4ccccc43)ncc21 (some centres unmarked) [2.96] | 80% | 100% | 100% | 90% | 90% | 100% | 100% | 100% | 100% | 80% | 100% | 100% | 100% | 0% | 10% | 10% | 20% | 0% | 0% | 0% | ALOMY herbicidal activity in percent (Alopecurus myosuroides): 80%; LOLMU herbicidal activity in percent (Lolium multiflorum): 90%; logp (HCOOH) [4]: oily; logp (HCOOH): 3.71; 1H-NMR (CDCl3, 400 MHZ, δ in ppm): ): 1.95 (m, 3H, 2H; ZEAMX herbicidal activity in percent (Zea mays [5]; 320 g/ha): 10%; TRZAS herbicidal activity in percent ([6]; 80 g/ha): 0%; TRZAS herbicidal activity in percent ([6]; 320 g/ha): 0%; ORYSA herbicidal activity in percent (Oryza sativa [7]; 320 g/ha): 0% |
